Experiments:
[1] = system: SK-OV-3; type: cell-based; settings: SK-OV-3, Ovarian Cancer
[2] = system: NCI/ADR-RES; type: cell-based; settings: Ovarian Cancer
[3] = system: SN12C; experiment: NCI 60 Cell One-Dose Screen; type: cell-based, human; settings: Renal Cancer, single dose 10^-5 M
[4] = system: RPMI-8226; experiment: NCI 60 Cell One-Dose Screen; type: cell-based, human; settings: RPMI-8226, Leukemia; single dose 10^-5 M
[5] = system: K-562; type: cell-based; settings: K-562, Leukemia
[6] = system: RPMI-8226; type: cell-based; settings: RPMI-8226, Leukemia
[7] = system: HL-60(TB); type: cell-based
[8] = system: MCF7; experiment: NCI 60 Cell One-Dose Screen; type: cell-based, human; settings: MCF7, Breast Cancer; single dose 10^-5 M
[9] = system: SNB-19; type: cell-based; settings: SNB-19, CNS Cancer
[10] = system: MCF7; type: cell-based; settings: MCF7, Breast Cancer
[11] = system: COLO 205; type: cell-based; settings: COLO 205, Colon Cancer
[12] = system: K-562; experiment: NCI 60 Cell One-Dose Screen; type: cell-based, human; settings: K-562, Leukemia; single dose 10^-5 M
[13] = system: BT-549; type: cell-based; settings: BT-549, Breast Cancer
[14] = system: SF-295; type: cell-based; settings: SF-295, CNS Cancer
[15] = system: ACHN; experiment: NCI 60 Cell One-Dose Screen; type: cell-based, human; settings: Renal Cancer, single dose 10^-5 M
[16] = system: MDA-MB-435; type: cell-based; settings: MDA-MB-435, Melanoma
[17] = system: A549/ATCC; experiment: NCI 60 Cell One-Dose Screen; type: cell-based, human; settings: Non-Small Cell Lung Cancer, single dose 10^-5 M
[18] = system: MDA-MB-231/ATCC; type: cell-based; settings: Breast Cancer
[19] = system: SNB-75; type: cell-based; settings: SNB-75, CNS Cancer
[20] = system: T-47D; type: cell-based; settings: Breast Cancer
[21] = system: NCI-H522; type: cell-based; settings: NCI-H522, Non-Small Cell Lung Cancer
[22] = system: SK-MEL-28; experiment: NCI 60 Cell One-Dose Screen; type: cell-based, human; settings: SK-MEL-28, Melanoma; single dose 10^-5 M
[23] = system: KM12; experiment: NCI 60 Cell One-Dose Screen; type: cell-based, human; settings: KM12, Colon Cancer; single dose 10^-5 M
[24] = system: MALME-3M; type: cell-based; settings: Melanoma
[25] = system: PC-3; experiment: NCI 60 Cell One-Dose Screen; type: cell-based, human; settings: PC-3, Prostate Cancer; single dose 10^-5 M
[26] = system: HCT-116; experiment: NCI 60 Cell One-Dose Screen; type: cell-based, human; settings: HCT-116, Colon Cancer; single dose 10^-5 M
[27] = system: IGROV1; experiment: NCI 60 Cell One-Dose Screen; type: cell-based, human; settings: IGROV1, Ovarian Cancer; single dose 10^-5 M
[28] = system: HOP-92; type: cell-based; settings: HOP-92, Non-Small Cell Lung Cancer
[29] = system: NCI-H23; type: cell-based; settings: NCI-H23, Non-Small Cell Lung Cancer
[30] = system: TK-10; type: cell-based
[31] = system: EKVX; experiment: NCI 60 Cell One-Dose Screen; type: cell-based, human; settings: Non-Small Cell Lung Cancer, single dose 10^-5 M
[32] = system: HCC-2998; experiment: NCI 60 Cell One-Dose Screen; type: cell-based, human; settings: HCC-2998, Colon Cancer; single dose 10^-5 M
[33] = system: UACC-62; experiment: NCI 60 Cell One-Dose Screen; type: cell-based, human; settings: UACC-62, Melanoma; single dose 10^-5 M
[34] = Homo sapiens, read-out: LC50 (the source's name)

Compound `NCC(=O)NS(=O)(=O)OC[C@H]1O[C@@H](n2cnc3c(N)ncnc32)[C@H](O)[C@@H]1O` [GlySA, glycylsulfamoyladenosine] has a GI50 ([1]; Homo sapiens) of 2880 nM, a CC50 [1, 34] of 37200 nM and an LC50/GI50 [1] of 12.9. For the same compound, the GI50 ([2]; Homo sapiens) was 2510 nM, the CC50 [2, 34] was > 100000 nM and the LC50/GI50 [2] was >39.8. For the same compound, the “Growth inhibition count (%)” value [3] was 1.03%, the “Growth inhibition count (%)” value [4] was 18.04% and the GI50 ([5]; Homo sapiens, K562) was 3720 nM. The LC50/GI50 [5] was >26.9, the GI50 ([6]; Homo sapiens) was 3310 nM and the CC50 [6, 34] was > 100000 nM. The LC50/GI50 [6] was >30.2, the LC50/GI50 ([7]; HL-60(TB), Leukemia) was >36.3 and the GI50 ([7]; Homo sapiens, HL-60) was 2750 nM. The “Growth inhibition count (%)” value [8] was 8.271%, the GI50 ([9]; Homo sapiens) was 380 nM and the CC50 [9, 34] was 6920 nM. The LC50/GI50 [9] was 18.2, the GI50 ([10]; Homo sapiens) was 2820 nM and the CC50 [10, 34] was > 100000 nM. For the same compound, the LC50/GI50 [10] was >35.5, the LC50/GI50 [11] was 28.2 and the GI50 ([11]; Homo sapiens) was 2290 nM. The CC50 [11, 34] was 64600 nM, the “Growth inhibition count (%)” value [12] was 7.376% and the LC50/GI50 [13] was 10.7. It also gave a GI50 ([13]; Homo sapiens) of 2340 nM, a GI50 ([14]; Homo sapiens) of 871 nM and a CC50 [14, 34] of 6920 nM. The LC50/GI50 [14] was 7.9, the “Growth inhibition count (%)” value [15] was 11.79% and the GI50 ([16]; Homo sapiens) was 1820 nM. For the same compound, the LC50/GI50 [16] was 3.6, the “Growth inhibition count (%)” value [17] was 9.701% and the LC50/GI50 [18] was 34.7. For the same compound, the GI50 ([18]; Homo sapiens) was 525 nM, the CC50 [18, 34] was 18200 nM and the GI50 ([19]; Homo sapiens) was 1150 nM. For the same compound, the CC50 [19, 34] was 9550 nM, the LC50/GI50 [19] was 8.3 and the LC50/GI50 [20] was >42.7. The GI50 ([20]; Homo sapiens, T47D) was 2340 nM, the CC50 ([20]; Homo sapiens, T47D, read-out: LC50 (the source's name)) was > 100000 nM and the GI50 ([21]; Homo sapiens) was 1740 nM. For the same compound, the CC50 [21, 34] was 8510 nM, the LC50/GI50 [21] was 4.9 and the “Growth inhibition count (%)” value [22] was 8.357%. For the same compound, the “Growth inhibition count (%)” value [23] was 0.7347%, the GI50 ([24]; Homo sapiens) was 1900 nM and the CC50 [24, 34] was 7760 nM. For the same compound, the LC50/GI50 [24] was 4.1, the “Growth inhibition count (%)” value [25] was 9.662% and the “Growth inhibition count (%)” value [26] was 6.566%. The “Growth inhibition count (%)” value [27] was 11.7%, the LC50/GI50 [28] was 9.3 and the GI50 ([28]; Homo sapiens) was 2950 nM. For the same compound, the CC50 [28, 34] was 27500 nM, the GI50 ([29]; Homo sapiens) was 2570 nM and the CC50 [29, 34] was > 100000 nM. For the same compound, the LC50/GI50 [29] was >38.9, the GI50 ([30]; Homo sapiens, TK-10) was 2750 nM and the CC50 ([30]; Homo sapiens, TK-10, Renal Cancer, read-out: LC50 (the source's name)) was 23400 nM. The LC50/GI50 ([30]; TK-10, Renal Cancer) was 8.5, the “Growth inhibition count (%)” value [31] was 44.07% and the “Growth inhibition count (%)” value [32] was 41.35%. For the same compound, the “Growth inhibition count (%)” value [33] was 30.71%.
